Earlier results, collected in US12336999B2, “Modified release formulations of 2-[3-[4-amino-3-(2-fluoro-4-phenoxy-phenyl) pyrazolo[3,4-d] pyrimidin-1-yl]piperidine-1-carbonyl]-4-methyl-4-[4-(oxetan-3-yl) piperazin-1-yl]pent-2-enenitrile” (Principia Biopharma Inc., priority 2016, dated 2025).
Where two headings read alike, the source gives them in different places.

C=CC(=O)N1CCC[C@@H](n2nc(-c3ccc(Oc4ccccc4)cc3)c3c(N)ncnc32)C1 [ibrutinib]
bioavailability as determined by AUC (administered intraduodenally): 100% | bioavailability as determined by AUC (direct oral administration): 21%
